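The compound was tested at five concentrations on cells cultured in 96-well plates, with a 48-hour exposure period. Definition used: TGI = concentration required for complete inhibition of growth.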
Experiments:
Assay in all cases: inhibition of tumour cell growth, NCI panel, 48 h
U251 CNS = system: U251 CNS
RXF 393 renal = system: RXF 393 renal
M14 melanoma = system: M14 melanoma
BT-549 breast = system: BT-549 breast
NCI-H460 lung = system: NCI-H460 lung
SK-MEL-28 melanoma = system: SK-MEL-28 melanoma
TK-10 renal = system: TK-10 renal
SK-MEL-5 melanoma = system: SK-MEL-5 melanoma
COLO 205 colon = system: COLO 205 colon
LOX IMVI melanoma = system: LOX IMVI melanoma
SK-MEL-2 melanoma = system: SK-MEL-2 melanoma
NCI/ADR-RES ovarian = system: NCI/ADR-RES ovarian
HCT-15 colon = system: HCT-15 colon
HL-60(TB) leukemia = system: HL-60(TB) leukemia
IGROV1 ovarian = system: IGROV1 ovarian

Compound | TGI (U251 CNS) [µM] | TGI (RXF 393 renal) [µM] | TGI (M14 melanoma) [µM] | TGI (BT-549 breast) [µM] | TGI (NCI-H460 lung) [µM] | TGI (SK-MEL-28 melanoma) [µM] | TGI (TK-10 renal) [µM] | TGI (SK-MEL-5 melanoma) [µM] | TGI (COLO 205 colon) [µM] | TGI (LOX IMVI melanoma) [µM] | TGI (SK-MEL-2 melanoma) [µM] | TGI (NCI/ADR-RES ovarian) [µM] | TGI (HCT-15 colon) [µM] | TGI (HL-60(TB) leukemia) [µM] | TGI (IGROV1 ovarian) [µM]
Clc1ccccc1/C=c1\nc(-c2ccccc2)n2c1nc1ccccc12 | 61.3 | 41.9 | > 100 | 50 | > 100 | > 100 | > 100 | > 100 | > 100 | > 100 | > 100 | > 100 | > 100 | > 100 | > 100
CC[C@H](C)[C@H]1NC(=O)[C@@H](NC(=O)[C@@H](CC(C)C)N(C)C(=O)C2CCCN2C(=O)[C@H](C)O)[C@@H](C)OC(=O)[C@H](Cc2ccc(OC)cc2)N(C)C(=O)[C@@H]2CCCN2C(=O)[C@H](CCCCNC(=O)OCc2ccccc2)NC(=O)[C@H](C)C(=O)[C@H](C(C)C)OC(=O)C[C@@H]1O (some centres not stated) | 17.6 | > 25 | > 25 | > 25 | > 25 | > 25 | > 25 | > 25 | 18.9 | > 25 | 10.1 | > 25 | > 25 | > 25 | > 25
C[C@@H](c1ccccc1)n1c(N)c(-c2ccccn2)c2ccc([N+](=O)[O-])cc2c1=O | > 100 | – | – | > 100 | > 100 | > 100 | > 100 | > 100 | > 100 | > 100 | > 100 | > 100 | > 100 | > 100 | –
O=C1NC(N2CCOCC2)=N/C1=C\c1ccc(Cl)cc1 | > 100 | > 100 | > 100 | > 100 | – | > 100 | > 100 | – | > 100 | > 100 | > 100 | > 100 | > 100 | > 100 | > 100
O=c1c2cc(I)ccc2nc(SCc2nncs2)n1Cc1ccccc1 | > 100 | 81.6 | > 100 | > 100 | > 100 | > 100 | > 100 | 88.3 | > 100 | > 100 | 85.5 | > 100 | > 100 | > 100 | 48.7
COc1ccc(N=Nc2c(C)c(C#N)c(=S)n(C3OC(CO)C(O)C(O)C3O)c2-c2ccccc2)cc1 (configuration not stated) | 86.1 | 65.9 | 76.8 | 97.6 | > 100 | 63.6 | 94.8 | 27.8 | > 100 | 99.6 | 89.7 | > 100 | > 100 | > 100 | > 100
COc1ccccc1NC(=S)N/N=C/c1c(C)n(C)n(-c2ccccc2)c1=O | > 100 | > 100 | > 100 | > 100 | > 100 | > 100 | > 100 | > 100 | > 100 | > 100 | > 100 | 63.9 | > 100 | > 100 | > 100
CN(C)CCCc1cccc2[nH]c3c(c12)CN(C)CC3 | > 100 | > 100 | 33.9 | > 100 | > 100 | > 100 | > 100 | > 100 | > 100 | > 100 | > 100 | > 100 | > 100 | > 100 | > 100
CC(=O)C(=[N+]=[N-])C(=O)N1CCOC1=O | > 10 | > 10 | > 10 | > 10 | > 10 | > 10 | > 10 | > 10 | > 10 | > 10 | > 10 | > 10 | > 10 | > 10 | > 10
COC(=O)/C(C#N)=C(\Nc1ccccc1)N1CCOCC1 | > 100 | > 100 | > 100 | > 100 | > 100 | > 100 | > 100 | > 100 | > 100 | > 100 | > 100 | > 100 | > 100 | > 100 | > 100
O=C(O)CCCC(=O)Nn1c(Cc2ccc(Cl)cc2)n[nH]c1=O | > 100 | > 100 | > 100 | > 100 | – | > 100 | > 100 | > 100 | > 100 | > 100 | > 100 | > 100 | > 100 | > 100 | > 100
CC(C)(C)OC(=O)n1c2ccccc2c2c(=O)nc(N3CCCCC3)sc21 | > 100 | – | > 100 | > 100 | > 100 | > 100 | > 100 | > 100 | > 100 | > 100 | > 100 | > 100 | > 100 | > 100 | > 100
CCOC(=O)c1c[nH]c2c(Sc3ccccc3)nccc2c1=O | > 100 | – | > 100 | > 100 | > 100 | > 100 | > 100 | > 100 | > 100 | > 100 | > 100 | > 100 | > 100 | 83.2 | > 100
N=C1OC(CN2CCN(c3ccccc3)CC2)CN1C(=S)Nc1ccccc1 (configuration not stated) | > 100 | > 100 | > 100 | > 100 | > 100 | > 100 | > 100 | > 100 | > 100 | 72.7 | > 100 | > 100 | > 100 | > 100 | > 100
